Assay results: publication PMC9814779, “A triple farnesoid X receptor and peroxisome proliferator-activated receptor α/δ activator reverses hepatic fibrosis in diet-induced NASH in mice” (Communications Chemistry, 2020)

Assays:
[1] = system: GAN DIO-NASH mice; test: DIO NASH model in mice (GAN diet); details: for animals with fibrosis worsening / animals with improvement in lobular inflammation / animals with reversed fibrosis: animals/group; for inflammatory cells and inflammatory foci in the liver: compared to vehicle; for liver Galectin-3 (Gal3) and liver CD45: markers of inflammation
Method: The DIO NASH model was performed by the contract research organization Gubra (Hørsholm, Denmark) on a fee-for-service basis. All animal experiments were conducted in accordance with Gubra’s bioethical guidelines, which are fully compliant to internationally accepted principles for the care and use of laboratory animals. The animals were checked minimum once daily for signs of abnormal behavior, abnormal locomotor activity, ataxia, or clinical signs of disease (lack of grooming, raised fur, signs of pain upon handling, loss of excessive body weight).
Male C57BL/6JRj mice (purchased from Janvier Labs, France at 5 weeks of age) were used for the study. […] Mice received the Gubra AMLN NASH (GAN; D09100310, Research Diet, US; 40% fat (primarily palm oil), 40% carbohydrate (20% fructose), and 2% cholesterol) diet for 46 weeks before start of the treatment. Prior to treatment, all animals underwent liver biopsy for histological conformation of liver disease (steatosis score ≥2 and fibrosis stage ≥1) using the non-alcoholic fatty liver disease activity scoring (NAS) and fibrosis staging system. Randomization and stratification to treatment was performed according to quantitative collagen staining (PSR). GAN DIO-NASH mice (n = 16 per group) received treatment (PO) with vehicle, OCA (30 mg/kg), or 41 (10 mg/kg, BID) for 12 weeks. Water containing 1% HPMC/Tween 80 (99:1) served as vehicle. Mice were then sacrificed by cardiac puncture under isoflurane anesthesia for histopathological and biochemical analysis.
For pre-biopsies, mice were anesthetized by inhalation anesthesia using isoflurane (2–3%). A small abdominal incision was made in the midline and the left lateral lobe of the liver was exposed. A cone-shaped wedge of liver tissue (approximately 50 mg) was excised from the distal portion of the lobe and fixated in 10% neutral buffered formalin (10%) for histology. The cut surface of the liver was instantly electrocoagulated using bipolar coagulation (ERBE VIO 100 electrosurgical unit). The liver was returned to the abdominal cavity, the abdominal wall was sutured, and the skin was closed with staplers. […] TG, TC, ALT, and AST levels were determined from blood samples collected at week 4 of treatment in heparinized tubes. Plasma was separated and stored at −80 °C until analysis. […] After termination by heart puncture, livers were collected and weighed. Specific liver samples and biopsies were dissected and processed. The liver was divided into left lateral lobe, medial lobe, right lateral lobe, and caudal lobe. The left lateral lobe was used for the pre-biopsy (not applicable at termination). The liver post biopsy (~200 mg, <0.7 × 0.5 cm) was cut 4 mm from the pre-biopsy site and with an edge. The tissue was collected in paraformaldehyde. The medial lobe was sectioned and snap-frozen in liquid nitrogen for later analysis. One piece (25 ± 5 mg) was dissected and used for TG/TC analysis. […] Liver samples were fixed in formalin, paraffin embedded, and sections were stained. For H&E staining, the slides were incubated in Mayer’s Hematoxylin (Dako), washed in tap water, stained in Eosin Y solution (Sigma-Aldrich), […], and cover-slipped. For PSR staining, the slides were incubated in Weigert’s iron hematoxylin (Sigma-Aldrich), washed in tap water, stained in PSR (Sigma-Aldrich), and washed twice in acidified water. Excess water was removed by shaking the slides, and the slides were then dehydrated in three changes of 100% ethanol, cleared in xylene, and cover-slipped. […] Briefly, after antigen retrieval and blocking of endogenous peroxidase activity, slides were incubated with primary antibody. The primary antibody was detected using a polymeric horseradish peroxidase–linker antibody conjugate. Next, the primary antibody was visualized with 3,3′diaminobenzidine as chromogen. Finally, sections were counterstained in hematoxylin and cover-slipped. Samples were scored for NAS following the criteria outlined in[37].

[2] = system: DIO NASH; details: cited from earlier work
[3] = system: diet-induced mouse model of NASH; details: cited from earlier work
[4] = system: nuclear receptors related to PPARs and FXR (LXRα/β, RXRα/β/γ, RARα/β/γ, VDR, CAR); test: Selectivity screening among nuclear receptors (Gal4 hybrid reporter gene assays); type: cell-based, human; details: three independent experiments
From the text: For the hybrid reporter gene assays, the previously reported Gal4-fusion receptor plasmids pFA-CMV-hPPARα-LBD[29], pFA-CMV-hPPARδ-LBD[29], pFA-CMV-hPPARγ-LBD[29], pFA-CMV-hLXRα-LBD[30], pFA-CMV-hLXRβ-LBD[30], pFA-CMV-hRXRα-LBD[31], pFA-CMV-hRXRβ-LBD[31], pFA-CMV-hRXRγ-LBD[31], pFA-CMV-hRARα-LBD[31], pFA-CMV-hRARβ-LBD[31], pFA-CMV-hRARγ-LBD[31], pFA-CMV-hVDR-LBD[31], and pFA-CMV-hCAR-LBD[31] coding for the hinge region and LBD of the canonical isoform of the respective nuclear receptor were used. pFR-Luc (Stratagene) was used as reporter plasmid for Gal4 hybrid reporter gene assays. pcDNA3-hFXR[32] and pSG5-hRXR[33] served for receptor overexpression in the full-length FXR assay and pGL3basic (Promega Corporation, Fitchburg, WI, USA) with a shortened construct of the BSEP promoter cloned into the SacI/NheI cleavage site in front of the luciferase gene[34] was used as reporter. PPRE-pGL3[35] contains the human full-length PPRE (cloned into the SacI/NheI cleavage site in front of the luciferase gene) and was used as reporter plasmid for the full-length PPRE reporter gene assay. pRL-SV40 (Promega) was used in all assays for normalization of transfection efficiency and cell growth.
Before transfection, medium was changed to Opti-MEM without supplements. […] Luminescence was measured with a Spark 10 M luminometer (Tecan Deutschland GmbH). […]

[5] = 41 10 mg/kg b.i.d., OCA 30 mg/kg
[6] = 12 weeks of treatment, 41 10 mg/kg b.i.d., OCA 30 mg/kg
[7] = 12 weeks, 41 10 mg/kg b.i.d., OCA 30 mg/kg

Compound	plasma biochemical parameters after 4 weeks of treatment [1, 5]	plasma ALT, AST and triglycerides (TG) at termination [1, 6]	plasma total cholesterol (TC) at termination ([1]; 12 weeks of treatment, OCA 30 mg/kg)	liver weight, liver TG and liver TC content [1, 7]	steatosis, hepatic fat content [1, 7]	animals not completing the study ([1]; OCA 30 mg/kg, one animal)	animals with fibrosis worsening [1, 7]	animals with improvement in lobular inflammation [1, 7]	animals with reversed fibrosis [1, 7]	inflammatory cells and inflammatory foci in the liver ([1]; 12 weeks)	liver Galectin-3 (Gal3) and liver CD45 ([1]; 12 weeks)	effects in DIO NASH [2]	anti-steatotic effect ([3]; OCA 30 mg/kg, OCA/elafibranor 30 mg/kg + 10 mg/kg, elafibranor 10 mg/kg)	anti-fibrotic activity ([3]; equivalent, previously reported study)	selectivity among nuclear receptors related to PPARs and FXR [4]	food intake and body weight ([1]; 12 weeks, 41 10 mg/kg b.i.d., vs. OCA or vehicle)	liver picrosirius red (PSR), pre vs. post treatment ([1]; after the treatment period, 41 10 mg/kg b.i.d.)	fibrosis markers PSR, Col1a1 and α-SMA ([1]; compared to vehicle-treated animals, 12 weeks)
CC[C@H]1[C@@H](O)[C@@H]2[C@H](CC[C@]3(C)[C@@H]([C@H](C)CCC(=O)O)CC[C@@H]23)[C@@]2(C)CC[C@@H](O)C[C@@H]12 [OCA, 6α-ethylchenodeoxycholic acid, reference compound]	reduced total cholesterol (TC) plasma levels	not different between groups	reduced TC levels	lowered liver weight, liver TG, and liver TC	strongly reduced hepatic fat content and steatosis score	found dead during the second week of the treatment phase	4/15	8/15	2/15	decreased the number of inflammatory cells and inflammatory foci	reduced by both treatments	pronounced anti-steatotic activity and slight anti-fibrotic effects	marked reductions in steatosis	only weak anti-fibrotic activity compared to vehicle	–	–	–	–
CC(C)(C)c1ccc(C(=O)Nc2cccc(CCC(=O)O)c2)c(NC(=O)c2ccc(-c3ccco3)cc2)c1 [compound 41, 3-(3-[4-{tert-Butyl}-2-{4-(2-furyl)}benzamido]phenyl)propanoic acid]	not significantly different between the groups	not different between groups	–	did not differ from vehicle-treated mice	no pronounced effect on steatosis	–	1/16	5/16	6/16	decreased the number of inflammatory cells and inflammatory foci	reduced by both treatments	–	–	–	no off-target liability	no difference in food intake and body weight	significant reduction of liver picrosirius red (PSR)	decreased
